Laboratory results taken from the OPERA property sets (Mansouri et al. 2018).
Where a SMILES comes first, the peptide text is derived from it. [ ]: non-standard residue; d: D form. ξ: configuration not given here. ξW = NC(Cc1c[nH]c2ccccc12)C(=O)O

SMILES	logP
Cc1cc(=O)[nH]nc1/C=C/c1ccc(-n2ccnc2)cc1	1.71
C=CC(=O)OCC(COC(=O)C=C)(COC(=O)C=C)COC(=O)C=C	2.11
CCCSCc1cc(=O)c(O)co1	1.32
Cc1[nH]cnc1CSCCNC1=C([N+](=O)[O-])CCN1	-0.87
CC(C)C(NC(=O)C(N)Cc1ccccc1)C(=O)NCC(=O)O (stereo not drawn) (H-Phe-Val-Gly-OH; configuration not given here)	-2.33
Nc1nnc(-c2cccc(Cl)c2Cl)c(N)n1	2.57
CC1=CCC(C)(C)C=CCC2(C)OC2CC1 (configuration not stated)	4.45
Nc1nc(NC2CC2)c2ncn([C@@H]3C=C[C@@H](CO)C3)c2n1	1.22
CCCCCCCNCc1ccc(C)cc1	5.12
O=C(NC1CCCCCCC1)NS(=O)(=O)c1cnccc1NC1CCCCC1	4.97
CCOC(=O)NNc1ccccc1	1.22
CCCC1C(=O)N(CCN(C)C)c2ccccc2CC1c1ccc(OC)cc1 (configuration not stated)	5.6
Cc1ccc(C)c(OCC2CN=C(N)O2)c1 (configuration not stated)	2.29
CCc1cccc(COC(=O)C2C(C=C(C)C(=O)OC)C2(C)C)c1 (configuration not stated)	5.42
CCNc1ccc(NC(=O)N(C)OC)cc1	0.83
COc1ccc(C2CC(=O)N(CCN(C)C)c3cccc(C(F)(F)F)c3C2)cc1 (configuration not stated)	5.1
CCCc1nc(N(C)C)nc(N2CCOCC2)n1	1.64
CCNc1nc(N)nc(OC)n1	0.89
CCC(C)C(NC(=O)C(C)N)C(=O)O (configuration not stated)	-2.6
Cc1ccc(S(=O)(=O)C(=Cc2ccccc2)C(=O)OC(C)C)cc1	3.92
CCNN=Nc1ccc(C(N)=O)cc1	1.19
Clc1ccc(-c2cnn(-c3ccccn3)c2)cc1	4.3
NC(Cc1ccccc1)C(=O)NC(Cc1ccccc1)C(=O)NC(Cc1ccccc1)C(=O)NC(Cc1ccccc1)C(=O)O (configuration not stated) (H-FFFF-OH; configuration not given here)	1.63
CC(=NNC(=O)c1ccc(O)cc1)c1cnccn1	1.9
OCC1OC(n2cnc3c(NCCCc4ccccc4)ncnc32)C(O)C1O (configuration not stated)	1.92
COc1ccc(CCNCC(O)COc2ccc(-c3nc(CN4CCOCC4)c[nH]3)cc2)cc1OC (configuration not stated)	2.4

SMILES	logP
c1ccc(CN2CCN(CCn3nc4ccccc4n3)CC2)cc1	3.3
Nc1nc(O)nc(Nc2ccccc2)n1	1.9
O=C(O)CCCCCON=C(c1cccc(C(F)(F)F)c1)c1cnccn1	3.52
COCCCNC(=O)Cn1cnc([N+](=O)[O-])n1	-0.49
CCNC(=S)NS(=O)(=O)c1cnccc1NC1CCCCC1	3.1
Cc1ccc(OC(=O)CNC(=O)c2ccccc2)c(C)c1	3.4
CC(C)CC(NC(=O)CNC(=O)C(NC(=O)C(Cc1ccccc1)NC(=O)C(N)C(C)C)C(C)C)C(=O)O (configuration not stated) (H-VFVGL-OH; configuration not given here)	-0.97
C=CC1(C)C=C2CCC3C(C)(CO)CCCC3(C)C2CC1 (configuration not stated)	6.85
CC(=O)OC1C(CCl)OC(n2cc(F)c(=O)[nH]c2=O)C1OC(C)=O (configuration not stated)	0.38
COC(=O)C1=C(C)NC(C)=C(C(=O)OC)C1c1cccc2c1OCO2	3.46
CNC(=S)NN=C(C)CSCC(C)=NNC(=S)NC	1.38
COC(=O)c1c(Oc2nc(OC)cc(OC)n2)cccc1C(C)=NOCC=C(Cl)Cl	4.23
CC(C)(C)[N+]([O-])=Cc1cccc(O)c1	1
CCCCC(=O)C(CCCCOc1c(C)cc(C)cc1[N+](=O)[O-])n1cncn1 (configuration not stated)	3.9
Cc1nc2ccccc2c(=O)n1CC(=O)O	0.38
NC(=O)Nc1cccc(O)c1	0.36
COc1ccc(CCNCC(O)COc2ccc(-c3nc(C(C)C)c[nH]3)cc2)cc1OC (configuration not stated)	3.9
Brc1c2ccccc2cc2ccccc12	5.37
COc1ccc(C2Cc3cc(Sc4ccccc4)ccc3N(CCN(C)C)C(=O)C2OC(C)=O)cc1 (configuration not stated)	5.8
Brc1cc2ccc3cccc4ccc(c1)c2c34	5.8
CCN(CC)c1nc(N)nc(Cl)n1	2.14
Cc1nc([N+](=O)[O-])c(Cl)[nH]1	1.06
Cc1cc2cc3c(C)cc(=O)oc3cc2o1	2.82
CCOP(=O)(OCC)C(Cl)(Cl)P(=O)(OCC)OCC	1.31
COc1cc(OC)c(Cl)cc1N	1.45
Cn1cc(-c2ccc(Cl)cc2)c(N2CCOCC2)c1	4.2

SMILES	logP
CC(C)(C)NCC(O)CON=C(C1CC1)C1CC1 (configuration not stated)	1.84
NC(Cc1c[nH]c2ccccc12)C(=O)NCC(=O)NCC(=O)O (stereo not drawn) (H-[ξW]-Gly-Gly-OH)	-2.72
C=CC(=O)OCCCOC(=O)C=C	0.87
CCCNCc1ccc(C)cc1	2.96
Cc1cccc2nc(N)nc(N)c12	1.26
ClCC1(CCl)C2CC(Cl)(Cl)C1(CCl)C(Cl)C2Cl (configuration not stated)	5.23
CCOC(=O)c1ccc(N=NN(C)C(=O)OCOC(C)=O)cc1	3.44
Cc1ccccc1Nc1ccncc1S(=O)(=O)NC(=O)NC(C)C	3.91
CC(C)(C)NC(=O)[C@@H]1C[C@@H]2CCCC[C@@H]2CN1C[C@@H](O)[C@H](Cc1ccccc1)NC(=O)[C@H](CC(N)=O)NC(=O)c1ccc2ccccc2n1	4.7
CC(C)CCCNc1ncnc2c1ncn2C1OC(CO)C(O)C1O (configuration not stated)	2.07
CCCCNC1CCc2c(OC)cccc2C1C (configuration not stated)	3.73
CN1CCN(CCn2nnc3ccccc32)CC1	0.36
CC(C)NC(=S)NS(=O)(=O)c1cnccc1NC1CCCCCC1	3.86
COc1ccc(-c2cn3cccnc3n2)c(OC)c1	1.94
CCOc1cccc(CNc2[nH]cnc3ncnc2-3)c1	2.57
Cc1ccc(-n2nnnc2N)cc1Cl	1.89
CC(C)(C)NCC(O)COc1cccc2c1CCN(C=O)C2 (configuration not stated)	1.3
CCOC(=O)OC(C)C1=CCSC2C(NC(=O)C(=NOC)c3csc(N)n3)C(=O)N12 (configuration not stated)	0.96
COC1=C(Cl)C(=O)c2ccccc2C1=O	2.15
CC(C)(C)[N+]([O-])=Cc1cccc([N+](=O)[O-])c1	1.3
COc1cc2ncnc(Nc3cccc(Br)c3)c2cc1OC	3.49
COc1ccc(CCNCC(O)COc2ccc(-c3nc(-c4cccs4)c[nH]3)cc2C)cc1OC (configuration not stated)	4.8
CCC(C)NC(=O)N1C(=O)N(C)CC1O (configuration not stated)	1.28
C[N+](C)([O-])CCC(c1ccccc1)c1ccccc1	1.1
CN(C)CCCCc1ccccc1	3.15
O=C(O)c1cc(O)c(Br)c(O)c1	1.75

SMILES	logP
COC(=O)Cc1ccc(O)cc1	1.63
C[C@@H]1N=C(c2ccccc2Cl)c2cc([N+](=O)[O-])ccc2NC1=O	2.72
Brc1ccc2ccc3ccc(Br)c4ccc1c2c34	6.73
CCCNC(C)C(=O)Nc1c(C)csc1C(=O)OC (configuration not stated)	1.89
C=CCc1c(OC)cc(Cc2cnc(N)nc2N)cc1OCC	2.66
CC(=O)c1cccc(CNc2[nH]cnc3ncnc2-3)c1	1.73
C=C(Cl)CON=C(C)c1cccc(Oc2nc(OC)cc(OC)n2)c1C(=O)OC	3.63
O=C(NC1CCCCCC1)NS(=O)(=O)c1cnccc1NC1CCCCCCC1	5.35
NC(Cc1ccccc1)C(=O)NC(Cc1ccc(O)cc1)C(=O)O (stereo not drawn) (H-Phe-Tyr-OH; configuration not given here)	-1.68
CC(C)(CO)N=O	-0.52
Nc1nnnn1-c1ccc([N+](=O)[O-])cc1	0.77
Cn1c(N)nc2c3cccnc3ccc21	1.47
Nc1nnnn1-c1cccc2ccccc12	1.72
OCCCCCCCCNc1[nH]cnc2ncnc1-2	2.23
CCOc1cccc(COC(=O)C2C(C=C(C)C(=O)OC)C2(C)C)c1 (configuration not stated)	4.78
Cc1ccc2c(c1)C(=O)N(CCO[N+](=O)[O-])CO2	2.41
CNC(Cc1ccccc1)C(=O)N1CCCC1C(=O)NCC1CCC(N)CC1 (configuration not stated)	1.12
Cc1[nH]cnc1CSCCNc1ncc(Cc2cccc3c2OCO3)c(=O)n1C	2.51
COc1cc2c(c(OC)c1OC)-c1ccc(O)c(=O)cc1C(N)CC2 (configuration not stated)	0.74
CCOC(=O)c1cccc2c1CC(c1ccc(OC)cc1)C(OC(C)=O)C(=O)N2CCN(C)C (configuration not stated)	4.2
CC(N)C(=O)NC(Cc1c[nH]c2ccccc12)C(=O)O (configuration not stated)	-2.21
COc1cc(OC)nc(Oc2cccc(Cl)c2C(=O)O)n1	2.23
CC1=C(CC(=O)O)c2cc(F)ccc2C1=Cc1ccc(S(C)(=O)=O)cc1	3.29
Clc1ccc(/C=N/OCCc2nc(-c3ccccc3)n[nH]2)cc1	2.83
COC(=O)C(C)NP(=O)(OCC1C=CC(n2cc(C)c(=O)[nH]c2=O)O1)Oc1ccc(C)cc1 (configuration not stated)	1.19
CSc1ccc2nc(-c3ccc(N)cc3)cn2c1	2.9

SMILES	logP
CCCCCOc1cccc(NC(=O)OCCN2CCCCC2)c1	5.5
CCCCCNCc1ccc(C)cc1	4.26
COc1ccc(C2Cc3cc(OC)ccc3N(CCN(C)C)C(=O)C2OC(C)=O)cc1 (configuration not stated)	3.2
COc1ccc(C=C2C(=O)NC(=S)NC2=O)cc1	0.76
COc1ccc(C2Cc3ccccc3N(CCN(C)C)C(=O)C2C)cc1 (configuration not stated)	4.5
CC(C)CC(N)C(=O)NC(Cc1ccccc1)C(=O)O (stereo not drawn) (H-Leu-Phe-OH; configuration not given here)	-1.15
COc1ccc2c(c1)OCN(CCO[N+](=O)[O-])C2=O	2.09
CC(C)C1(C)N=C(c2ncc(CO)cc2C(=O)O)NC1=O (configuration not stated)	-0.21
Cc1cc2c(ccc3c(C)cc(=O)n(C)c32)o1	3.08
CCCON=C(C)c1cccc(Oc2nc(OC)cc(OC)n2)c1C(=O)OC	3.59
O=c1ccc(/C=C/c2ccc(-n3ccnc3)cc2)n[nH]1	1.21
CC(=O)Nc1ccc(S(=O)(=O)Nc2cc(C)nc(C)n2)cc1	-0.14
CCN(CC)CCC(=O)Nc1ccccc1	2.31
CCCNC(=O)CNC(=O)C=[N+]=[N-]	-0.24
O=S(=O)(NC(=S)NC1CCCCC1)c1cnccc1NC1CCCCCCC1	5.04
O=S(NC(=S)N1CCCCC1)c1cnccc1NC1CCCCC1 (configuration not stated)	3.75
Cc1ccc(CNc2ncnc3nc[nH]c23)cc1	2.66
CC(CO)CCNc1ncnc2nc[nH]c12 (configuration not stated)	1.16
NS(=O)(=O)c1ccncn1	-0.2
N[C@@H](Cc1c[nH]c2ccccc12)C(=O)N[C@@H](Cc1c[nH]c2ccccc12)C(=O)O (H-Trp-Trp-OH)	-0.27
CCCCCCCNC1=NS(=O)N=C1NCCSCc1ccc(CN(C)C)o1 (configuration not stated)	3.91
OC(CNCc1ccccc1)CON=C(C1CC1)C1CC1 (configuration not stated)	2.08
CC(=O)OC(C)(C)C1CCC2(C)CCCC(=O)C2C1 (configuration not stated)	3.2
